Results from ChEMBL document CHEMBL1146477, “Bioactive constituents from Asparagus cochinchinensis” (J Nat Prod, 2004).

How the values were obtained:
[1] = Cytotoxicity against human HOG.R5 cells; format: cell-based
KB = test: Cytotoxicity against human KB cells; format: functional, cell-based
Col2 = test: Cytotoxicity against human Col2 cells; format: functional, cell-based
LNCaP = test: Cytotoxicity against human LNCAP cells; format: functional, cell-based
Lu1 = test: Cytotoxicity against human Lu1 cells; format: functional, cell-based
HUVEC = test: Cytotoxicity against HUVEC; format: cell-based; settings: Homo sapiens
[2] = tested on: Human immunodeficiency virus 1; test: Antiviral activity against HIV1 3B infected in human HOG.R5 cells after 4 days; format: functional, organism-based; settings: Human immunodeficiency virus 1, 3B, HOG.R5, 96 h

`C=CC(/C=C\c1ccc(O)cc1)c1ccc(O)c(OC)c1` (stereo not given) gave a CC50 [1] of 24.1 µM, an IC50 (KB) of 31.9 µM and an IC50 (Col2) of 22.3 µM. For the same compound, the IC50 (LNCaP) was 23.4 µM, the IC50 (Lu1) was 15.9 µM and the IC50 (HUVEC) was 23.7 µM.
In the case of `Cc1c2ccncc2c(C)c2c1[nH]c1ccccc12` [ELLIPTECINE], the CC50 [1] is reported as 0.08 µM, the IC50 (KB) is reported as 0.16 µM and the IC50 (Col2) is reported as 1.22 µM. The IC50 (LNCaP) was 3.25 µM, the IC50 (Lu1) was 0.08 µM and the IC50 (HUVEC) was 0.37 µM.
For `C=C[C@H](/C=C\c1ccc(O)cc1)c1ccc(O)cc1` [NYASOL], the IC50 [2] was 46.4 µM, the CC50 [1] was 58.1 µM and the IC50 (KB) was > 20 µg/mL. For the same compound, the IC50 (Col2) was > 20 µg/mL, the IC50 (LNCaP) was > 20 µg/mL and the IC50 (Lu1) was > 20 µg/mL. The IC50 (HUVEC) was > 20 µg/mL.
In the case of `C[C@H]1CC[C@@]2(OC1)O[C@H]1C[C@H]3[C@@H]4CC[C@@H]5C[C@@H](O[C@@H]6O[C@H](CO[C@@H]7OC[C@H](O)[C@H](O)[C@H]7O)[C@@H](O[C@@H]7OC[C@H](O)[C@H](O)[C@H]7O)[C@H](O)[C@H]6O[C@@H]6O[C@H](CO)[C@@H](O)[C@H](O)[C@H]6O)CC[C@]5(C)[C@H]4CC[C@]3(C)[C@H]1[C@@H]2C` [ASPARACOSIDE], the CC50 [1] is reported as < 10 µM, the IC50 (KB) is reported as 4.8 µM and the IC50 (Col2) is reported as 5.4 µM. The IC50 (LNCaP) was 10.1 µM, the IC50 (Lu1) was 4.2 µM and the IC50 (HUVEC) was 4.1 µM.
In the case of `COC1(OC)CC[C@@]2(C)[C@H](CC[C@@H]3[C@@H]2CC(=O)[C@@]2(C)[C@H]3C[C@@H]3O[C@]4(CC[C@@H](C)CO4)[C@@H](C)[C@@]32O)C1` [ASPARACOSIN B], the IC50 (KB) is reported as > 20 µg/mL, the IC50 (Col2) is reported as > 20 µg/mL and the IC50 (LNCaP) is reported as > 20 µg/mL. The IC50 (Lu1) was > 20 µg/mL and the IC50 (HUVEC) was > 20 µg/mL.
With `COc1cc(/C=C/CO)ccc1O` [CONIFERYL ALCOHOL] the IC50 (KB) was > 20 µg/mL, the IC50 (Col2) was > 20 µg/mL and the IC50 (LNCaP) was > 20 µg/mL. For the same compound, the IC50 (Lu1) was > 20 µg/mL and the IC50 (HUVEC) was > 20 µg/mL.
In the case of `Oc1ccc(C#C/C=C/COc2ccc(O)cc2)cc1` [ASPARENYDIOL], the CC50 [1] is reported as < 18 µM, the IC50 (KB) is reported as 8.5 µM and the IC50 (Col2) is reported as > 20 µg/mL. For the same compound, the IC50 (LNCaP) was > 20 µg/mL, the IC50 (Lu1) was 70.1 µM and the IC50 (HUVEC) was > 20 µg/mL.
With `C[C@@H]1CC[C@@]2(OC1)O[C@H]1C[C@H]3[C@@H]4CCC5=CC(=O)CC[C@]5(C)[C@H]4C[C@@H](O)[C@]3(C)[C@@]1(O)[C@@H]2C` [ASPARACOSIN A] the IC50 (KB) was 24.1 µM, the IC50 (Col2) was > 20 µg/mL and the IC50 (LNCaP) was > 20 µg/mL. The IC50 (Lu1) was > 20 µg/mL and the IC50 (HUVEC) was > 20 µg/mL.
Compound `C=CC(/C=C\c1ccc(O)cc1)c1ccc(OC)c(O)c1` (stereo not given) has a CC50 [1] of 12 µM, an IC50 (KB) of 31.9 µM and an IC50 (Col2) of 41.4 µM. It also gave an IC50 (LNCaP) of 41.1 µM, an IC50 (Lu1) of 25.5 µM and an IC50 (HUVEC) of 58.1 µM.
With `COc1cc(C#C/C=C/COc2ccc(O)cc2)ccc1O` the CC50 [1] was < 17 µM, the IC50 (KB) was 40.5 µM and the IC50 (Col2) was > 20 µg/mL. The IC50 (LNCaP) was > 20 µg/mL, the IC50 (Lu1) was 66.5 µM and the IC50 (HUVEC) was > 20 µg/mL.
In the case of `C=CC(CC(=O)c1ccc(O)cc1)c1ccc(O)cc1` (stereo not given), the IC50 [2] is reported as 74.6 µM, the CC50 [1] is reported as 76.8 µM and the IC50 (KB) is reported as > 20 µg/mL. For the same compound, the IC50 (Col2) was > 20 µg/mL, the IC50 (LNCaP) was > 20 µg/mL and the IC50 (Lu1) was > 20 µg/mL. The IC50 (HUVEC) was > 20 µg/mL.
